{
  "source": "paper PMC12163827",
  "about": "“Identification of Novel Leishmania donovani Nucleoside Hydrolase Inhibitors from Banisteriopsis laevifolia Using Affinity Selection-Mass Spectrometry” (ACS Omega, 2025)",
  "type_in_all_cases": "biochemical",
  "key": {"[1]": {"target": "T1, Leishmania donovani nucleoside hydrolase (LdNH) (Leishmania donovani, UniProt Q8WQX2)", "T1 construct": "gene iunh", "T1 sequence (Q8WQX2 1-314)": "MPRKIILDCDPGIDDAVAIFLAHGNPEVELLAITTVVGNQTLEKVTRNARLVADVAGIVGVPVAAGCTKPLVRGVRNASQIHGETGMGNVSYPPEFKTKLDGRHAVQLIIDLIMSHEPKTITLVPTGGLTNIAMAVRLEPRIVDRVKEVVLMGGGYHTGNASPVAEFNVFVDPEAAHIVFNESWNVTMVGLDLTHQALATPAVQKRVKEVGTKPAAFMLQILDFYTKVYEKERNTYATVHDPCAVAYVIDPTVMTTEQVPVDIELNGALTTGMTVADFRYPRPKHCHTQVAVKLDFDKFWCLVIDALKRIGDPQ", "assay": "HPLC-DAD inosine hydrolysis assay with immobilized purified LdNH plus […] Triton X-100; also AS-MS (affinity ratio […])"}, "[2]": {"target": "T1, Leishmania donovani nucleoside hydrolase (LdNH)", "assay": "HPLC-DAD inosine hydrolysis assay with immobilized purified LdNH plus […] Triton X-100; also AS-MS (affinity ratio […])", "remark": "listed apart in the source"}, "[3]": {"target": "T1, Leishmania donovani nucleoside hydrolase (LdNH)", "assay": "HPLC-DAD inosine hydrolysis assay with immobilized LdNH, single concentration […] with Triton X-100; also AS-MS (affinity ratio […])", "details": "read-out: inhibition at 100 μmol/L (with Triton X-100) (%)"}, "[4]": {"target": "T1, Leishmania donovani nucleoside hydrolase (LdNH)", "assay": "HPLC-DAD inosine hydrolysis assay with immobilized LdNH, single concentration […] with Triton X-100; also AS-MS (affinity ratio […])", "details": "read-out: inhibition at 100 μmol/L (with Triton X-100) (%)", "remark": "listed apart in the source"}},
  "note": "Like-named read-outs stand apart in the source and are kept apart here.",
  "data": [
    {"molecule": "O=c1c(O[C@@H]2O[C@H](CO)[C@@H](O)[C@H](O)[C@H]2O)c(-c2ccc(O)cc2)oc2cc(O)cc(O)c12", "note": "[astragalin]", "values": [
      {"measurement": "IC50", "setting": "[1]", "result": "41.6 ± 8.9", "unit": "µM"}
    ]},
    {"molecule": "O=c1c(O[C@@H]2O[C@H](CO)[C@@H](O)[C@H](O)[C@H]2O)c(-c2ccc(O)c(O)c2)oc2cc(O)cc(O)c12", "note": "[isoquercetin]", "values": [
      {"measurement": "IC50", "setting": "[2]", "result": "40.2 ± 16.6", "unit": "µM"}
    ]},
    {"molecule": "O=c1cc(-c2ccc(O)c(O)c2)oc2c([C@@H]3O[C@H](CO)[C@@H](O)[C@H](O)[C@H]3O)c(O)cc(O)c12", "note": "[orientin]", "values": [
      {"measurement": "inhibition at 100 µM", "setting": "[3]", "result": 30.4, "unit": "%"}
    ]},
    {"molecule": "C[C@@H]1O[C@@H](OC[C@H]2O[C@@H](Oc3c(-c4ccc(O)c(O)c4)oc4cc(O)cc(O)c4c3=O)[C@H](O)[C@@H](O)[C@@H]2O)[C@H](O)[C@H](O)[C@H]1O", "note": "[rutin]", "values": [
      {"measurement": "inhibition at 100 µM", "setting": "[4]", "result": 61.2, "unit": "%"}
    ]}
  ]
}
